Assay results taken from article PMC8165439, “Chymase Dependent Pathway of Angiotensin II Generation and Rapeseed Derived Peptides for Antihypertensive Treatment of Spontaneously Hypertensive Rats” (Frontiers in Pharmacology, 2021).
Where a SMILES comes first, the peptide text is derived from it. Where no end group is shown, it is not given here.

Experiments:
adult SHR = conditions: tail cuff method, ref Kirimura et al. (2005); cited from earlier work
Description: [Kirimura et al. (2005)], studied NK3201, another chymase inhibitor. […] However, the study by [Kirimura et al. (2005)], in addition to the obvious difference in the protocol (single oral dose vs. our chronic intravenous infusion) has another limitation: the tail cuff method was used to measure blood pressure.

[1] = tested on: spontaneously hypertensive rats (SHR); experiment: Metabolic parameters in metabolic cages during chronic treatment; format: in vivo, rat; conditions: mean ± SEM
Method: (§1) Systolic and diastolic blood pressure (SBP and DBP, respectively) and heart rate (HR) were measured in conscious unrestrained rats by telemetry technique, once a week for 24 h. 24 hour observations in metabolic cages (Tecniplast S. p.A. Buguggiate, Italy) were performed weekly. The diuresis, weight of feces, food and water intake were measured; urine and blood samples were collected on day 0, 7th and 14th, and were centrifuged at 1200 g (blood for 15 min and urine for 5 min), then the samples were stored at –80°C until analysis.
(§2) On day 0 all animals received saline (0.9% NaCl) and then, for 14 consecutive days, the substance tested. Chymostatin (CH, 2 mg/kg/day) was dissolved in DMSO and then diluted with PBS (final concentration of DMSO was 0.15%). Peptides RIY (7.5 mg/kg/day) and VWIS (12.5 mg/kg/day) were dissolved in saline (0.9% NaCl, S). The substances were administered through the femoral vein during 10 min in the volume of 0.5 ml to young SHR (infusion rate: 3 ml/h) and 1 ml to adult rats (infusion rate: 6 ml/h). Control rats received solvents (either DMSO or saline) in the same volume.
(§3) Urine volume was determined by gravimetric method. Sodium and potassium concentration in urine and plasma were measured by flame photometry (PFP7/C, Jenway Ltd, Stone, United Kingdom). Urine and plasma osmolality were measured by freezing point depression (Osmomat® 030 M, Gonotec, Berlin, Germany). These parameters were used to determine the excretion rates of total solutes (UosmV), sodium (UNaV) and potassium (UKV). Commercially available ELISA kits were used to measure nitric oxide metabolites (NOx, SunRed, Shanghai) and albumin (Albumin, ICL, Portland) concentration in urine. Excretion rate of NOx (UNOxV) and albumin (UAE) were calculated.

[2] = tested on: spontaneously hypertensive rats (SHR); experiment: Plasma and urine parameters during chronic treatment; format: in vivo, rat; conditions: mean ± SEM
Method: as §1, §2, §3

ACE = conditions: ref Marczak et al. (2003); cited from earlier work
Human chymase = target: T1, Human chymase (Homo sapiens, UniProt P23946); conditions: pH 7.8
T1 sequence (P23946 22-247): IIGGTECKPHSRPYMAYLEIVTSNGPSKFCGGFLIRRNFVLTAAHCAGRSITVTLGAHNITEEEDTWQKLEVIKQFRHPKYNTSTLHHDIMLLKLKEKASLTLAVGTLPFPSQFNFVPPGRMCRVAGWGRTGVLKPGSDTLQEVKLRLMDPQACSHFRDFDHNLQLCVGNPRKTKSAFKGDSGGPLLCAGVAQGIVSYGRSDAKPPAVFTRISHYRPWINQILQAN
Method: Chymase digestion of ANG I in the presence of synthetized peptides was performed in vitro. The concentration of remaining ANG I was calculated in order to assess the ability of peptides to inhibit chymase.
Human chymase (72 units/mg protein; 259 µg protein/ml, vial volume 187 μl, Sigma) stock solution was prepared by diluting the initial sample of enzyme with Tris*HCl buffer (0.27 mM Tris*HCl, pH 7.8 and 150 mM NaCl) to obtain the final chymase concentration of 1.379 μg/ml.
Reactions (during which ANG I was converted to ANG II through removal of two C-terminal residues) were stopped at the desired times (0, 10, 20, 30, 40, 60, 80 min) by addition of 10 μl of 98% FA. […] Positive electrospray (ES+) was used as the ionization method for mass spectrometry.
The inhibitory effect of each peptide on chymase activity was expressed as remaining amount of substrate vs. time of digestion and presented as percentage ratio and calculated by the following formula [ANG It=X min/ANG It=0 min]x100% where ANG It=X min is the peak area of angiotensin I at desired time of digestion, ANG It=0 min is the peak area of angiotensin I at 0 min of digestion.

[3] = adult SHR (SHR-16), day 0 (baseline)
[4] = adult SHR (SHR-16), day 7 of daily iv CH 2, RIY 7.5, VWIS 12.5 mg/kg/day
[5] = adult SHR (SHR-16), day 7 of daily iv treatment
[6] = adult SHR (SHR-16), day 14 of daily iv CH 2, RIY 7.5, VWIS 12.5 mg/kg/day
[7] = adult SHR (SHR-16), day 14 of daily iv treatment
[8] = young SHR (SHR-6), day 0 (baseline), CH n=8-10, RIY n=5, VWIS n=5-6
[9] = young SHR (SHR-6), day 0 (baseline)
[10] = young SHR (SHR-6), day 7 of daily iv CH 2, RIY 7.5, VWIS 12.5 mg/kg/day
[11] = young SHR (SHR-6), day 7 of daily iv treatment
[12] = young SHR (SHR-6), day 14 of daily iv CH 2, RIY 7.5, VWIS 12.5 mg/kg/day
[13] = young SHR (SHR-6), day 14 of daily iv treatment

Which “blood pressure after a single oral dose” value (adult SHR) does the source give for `O=CNc1cnc(-c2ccccc2)n(CC(=O)NC(Cc2ccccc2)C(=O)C(=O)CCCOc2ccccn2)c1=O` (stereo not drawn) [NK3201] here?
Its value is “did not lower blood pressure”.

What does the source list for `CC[C@H](C)[C@H](NC(=O)[C@H](Cc1c[nH]c2ccccc12)NC(=O)[C@@H](N)C(C)C)C(=O)N[C@@H](CO)C(=O)O` [VWIS, Valine-Tryptophan-Isoleucine-Serine] (H-VWIS-OH)?
Body weight ([1]; adult SHR (SHR-16), day 0 (baseline), CH n=8, RIY n=5-6, VWIS n=5-6): 304 ± 8 g; Diuresis [1, 3]: 7.1 ± 1.4 µL/min; Faeces [1, 3]: 11±1 g/24 h; Food intake [1, 3]: 20±1 g/24 h; Water intake [1, 3]: 30±1 g/24 h; Body weight [1, 4]: 312 ± 11 g; Diuresis [1, 5]: 7.0 ± 1.3 µL/min; Faeces [1, 5]: 11±2 g/24 h; Food intake [1, 5]: 22±1 g/24 h; Water intake [1, 5]: 34±1 g/24 h; Body weight [1, 6]: 329 ± 11 g; Diuresis [1, 7]: 8.0 ± 1.8 µL/min; Faeces [1, 7]: 11±1 g/24 h; Food intake [1, 7]: 19±1 g/24 h; Water intake [1, 7]: 32±2 g/24 h; Body weight [1, 8]: 110 ± 11 g; Diuresis [1, 9]: 6.3 ± 0.8 µL/min; Faeces [1, 9]: 10±1 g/24 h; Food intake [1, 9]: 16±1 g/24 h; Water intake [1, 9]: 22±2 g/24 h; Body weight [1, 10]: 145 ± 13 g; Diuresis [1, 11]: 7.2 ± 0.7 µL/min; Faeces [1, 11]: 13±1 g/24 h; Food intake [1, 11]: 19±1 g/24 h; Water intake [1, 11]: 32±7 g/24 h; Body weight [1, 12]: 174 ± 13 g; Diuresis [1, 13]: 8.5 ± 0.8 µL/min; Faeces [1, 13]: 14±1 g/24 h; Food intake [1, 13]: 20±1 g/24 h; Water intake [1, 13]: 30±2 g/24 h; Plasma osmolality ([2]; adult SHR (SHR-16), day 0 (baseline), CH n=5-8, RIY n=5-6, VWIS n=5-6): 313±1 mOsm/l; Plasma K+ concentration [2, 3]: 4.20 ± 0.18 mmol/L; Plasma Na+ concentration [2, 3]: 133.0 ± 0.8 mmol/L; Potassium excretion [2, 3]: 0.97 ± 0.21 µmol/min; Sodium excretion [2, 3]: 0.90 ± 0.18 µmol/min; Total solute excretion [2, 3]: 7.52±1.54 µOsm/min; Plasma osmolality [2, 4]: 308±1 mOsm/l; Plasma K+ concentration [2, 5]: 3.78 ± 0.31 mmol/L; Plasma Na+ concentration [2, 5]: 130.2 ± 4.5 mmol/L; Potassium excretion [2, 5]: 1.26 ± 0.27 µmol/min; Sodium excretion [2, 5]: 1.02 ± 0.19 µmol/min; Total solute excretion [2, 5]: 9.90±2.21 µOsm/min; Plasma osmolality [2, 6]: 302±2 mOsm/l; Plasma K+ concentration [2, 7]: 3.96 ± 0.06 mmol/L; Plasma Na+ concentration [2, 7]: 135.8 ± 4.7 mmol/L; Potassium excretion [2, 7]: 0.95 ± 0.21 µmol/min; Sodium excretion [2, 7]: 0.81 ± 0.16 µmol/min; Total solute excretion [2, 7]: 10.42±2.06 µOsm/min; Plasma osmolality [2, 8]: 295±2 mOsm/l; Plasma K+ concentration [2, 9]: 4.42 ± 0.20 mmol/L; Plasma Na+ concentration [2, 9]: 131.8 ± 3.0 mmol/L; Potassium excretion [2, 9]: 0.73 ± 0.20 µmol/min; Sodium excretion [2, 9]: 0.69 ± 0.13 µmol/min; Total solute excretion [2, 9]: 5.48±1.40 µOsm/min; Plasma osmolality [2, 10]: 297±1 mOsm/l; Plasma K+ concentration [2, 11]: 4.45 ± 0.16 mmol/L; Plasma Na+ concentration [2, 11]: 133.40 ± 5.6 mmol/L; Potassium excretion [2, 11]: 1.75 ± 0.15 µmol/min; Sodium excretion [2, 11]: 0.84 ± 0.13 µmol/min; Total solute excretion [2, 11]: 7.11±0.95 µOsm/min; Plasma osmolality [2, 12]: 293±3 mOsm/l; Plasma K+ concentration [2, 13]: 4.33 ± 0.14 mmol/L; Plasma Na+ concentration [2, 13]: 131.4 ± 4.5 mmol/L; Potassium excretion [2, 13]: 0.72 ± 0.11 µmol/min; Sodium excretion [2, 13]: 0.63 ± 0.08 µmol/min; Total solute excretion [2, 13]: 7.16±0.75 µOsm/min; stability / conversion to dipeptide in the presence of ACE (ACE): transformed rapidly to dipeptide VW

Which “half-life time of ANG I (T1/2) in human chymase solution in absence of inhibitory peptides” value (Human chymase) does the source give for DRVYIHPFHL [ANG I, angiotensin I] here?
The value was 16 min.
